In patent US10596296B2, “Heparan sulphates” (Agency for Science, Technology and Research, priority 2014, dated 2020):

Key:
[1] = target: T1, TGF-β1 (Homo sapiens, UniProt P01137); test: SPR competitive binding: soluble GAG competes for TGF-β1 against heparin-coated chip; details: for ability to competitively inhibit TGF-β1 binding to immobilized heparin: 200 nM TGF-β1 pre-incubated with 5 or 10 μg GAG
T1 construct: full length mature TGF-β1 is 112 amino acids in length
Protocol: Biotinylated heparin was prepared based on the protocol reported by Hernaiz et al. (33). Briefly, 20 mg of heparin was filter-sterilized (0.22 μm) in 1 ml of water and incubated with 8.6 μmol of N-hydroxysuccinimide-biotin (NHS-biotin) (Pierce) in 20 μl of dimethyl sulfoxide (DMSO) for 2 h at 4° C. The biotinylated heparin was then extensively dialyzed (7000 MWCO) to remove unreacted biotin. Immobilization of the biotinylated heparin onto a streptavidin (SA) sensor chip (GE Healthcare) was carried out using the immobilization wizard on the Biacore T100 (GE Healthcare) with a targeted immobilization level of approximately 40 response units (RUs). HBS-EP running buffer (10 mM HEPES, 150 mM NaCl, 3.0 mM EDTA, 0.05% (v/v) Tween 20, pH 7.4) was used for the immobilization.
TGF-β1-heparin interactions were effected by preparing a series of TGF-β1 protein samples (50 to 800 nM final concentration) diluted in HBS-EP-0.1 running buffer (0.1% instead of 0.05% (v/v) Tween 20). […] The sample solutions were then injected over the heparin-coated chip at a flow rate of 30 μl/min for 120 s, with HBS-EP-0.1 being subsequently passed over the chip for a further 1200 s to monitor TGF-β1 dissociation. After dissociation, the sensor surface on the chip was regenerated by 2 washes of 2 M NaCl injected at 30 μl/min for 60 s. The response was measured as a function of time (sensogram) at 25° C. The maximum binding response for each condition was normalized to the response obtained from TGF-β1 alone.

[2] = tested on: TGF-β1 signaling (pSMAD2, pSMAD3) in hMSCs; test: Western blotting of pSMAD2/pSMAD3 in hMSCs treated with TGF-β1 and GAG; format: cell-based, human; details: TGF-β1 1 ng/ml pre-incubated with 10 μg/ml GAG; 6 h
Protocol: Primary hMSCs (Lonza) were isolated from the bone marrow mononuclear cells of a young healthy adult human donor by plastic adherence and characterized as previously described (30,31). The adherent cells were maintained in a basal media consisting of DMEM-low glucose (1000 mg/l, DMEM-LG) supplemented with 10% fetal calf serum, 100 U/ml penicillin, 100 μg/ml streptomycin and 2 mM L-glutamine, and cultured under standard conditions at 37° C. and 5% CO2 in a humidified atmosphere. Media replacement was every three days. Cells were detached with 0.125% trypsin/Versene (pH 7.0) upon reaching 75-80% confluence, and re-plated at a density of 3,000 cells/cm^2 under the same culture conditions. All experiments were carried out with cells at passage 5.
Human MSCs were cultured in 6-well plates in basal media for 24 h at a density of 10,000 cells/cm^2. TGF-β1 treatments were then prepared at either 1 ng/ml or 5 ng/ml alone or in the presence of either 10 μg/ml or 40 μg/ml of full length heparin, or 1 ng/ml of TGF-β1 with 10 μg/ml size-fractionated or selectively desulfated heparin, HS^PM, HS16+ or HS16−, and incubated at room temperature for 10 min before being added to the cells. Latent TGF-β1 (LTGF-β1) treatments were similarly prepared at 3.3 ng/ml alone or with 10 μg/ml of the various GAGs described above. For inhibitor studies, the cells were pre-treated for 30 min with 10 μM SB431542 (Sigma-Aldrich) or DMSO before treatment with TGF-β1. […] Samples were then immunoblotted with antibodies against SMAD2/3 (#3102, Cell Signaling), phosphorylated SMAD2 (pSMAD2, #3108, Cell Signaling), phosphorylated SMAD3 (pSMAD3, #9520, Cell Signaling) and actin (MAB1501R, Millipore). Densitometry was carried out using Quantity One software (version 4.6.6, Bio-Rad).

[3] = target: T1, TGF-β1; test: GAG-binding plate assay; details: wells coated with 5 μg/ml GAG
Protocol: GAGs are immobilized in each well and then challenged with TGF-β1 according to the manufacturer's instructions. Briefly, triplicate wells are first pre-coated with 5 μg/ml of heparin, HS^PM, HS16^+ve or HS16^−ve in standard assay buffer (SAB: 100 mM NaCl, 50 mM sodium acetate, 0.2% v/v Tween 20, pH 7.2), and then incubated overnight at room temperature. The plates are next washed carefully three times with SAB, blocked with 250 μl of blocking solution (0.4% w/v fish skin gelatine, Sigma-Aldrich, in SAB) and incubated for 1 h at 37° C. TGF-β1 was then dissolved in blocking solution at a concentration of 100, 200, or 400 ng/ml. The plates are washed three times with SAB and each dilution of protein (200 μl) is dispensed into triplicate wells and incubated for 2 h at 37° C., rinsed with SAB and 200 μl of 750 ng/ml monoclonal mouse anti-TGF-β1 antibody (MAB2401, R&D Systems) added in blocking solution. Plates are then incubated for 1 h at 37° C., washed with SAB, and 200 μl of 1 μg/ml polyclonal goat anti-mouse biotinylated antibody (ab6788, Abcam) added in blocking solution. Again, plates are incubated for 1 h at 37° C., washed with SAB, and 200 μl of 220 ng/ml ExtrAvidin AP (Sigma-Aldrich) is added in blocking solution, incubated for 30 min at 37° C., and then rinsed with SAB. Finally, 200 μl of development reagent (SigmaFAST p-Nitrophenyl phosphate, Sigma-Aldrich) is added, incubated at 37° C. for 40 min and read at 405 nm within 1 h.
To determine the ability of TGF-β1 to bind to heparin, we utilized positively-charged GAG-binding plates (Iduron) as a capture substrate. GAGs were immobilized in each well and then challenged with TGF-β1 according to the manufacturer's instructions. Briefly, triplicate wells were first pre-coated with 5 μg/ml of full length heparin, size-fractionated heparin (dp14, 16, 18, 20, 22 and 24) or selectively […] heparin prepared in standard assay buffer (SAB: 100 mM NaCl, 50 mM sodium acetate, 0.2% v/v Tween 20, pH 7.2), and then incubated overnight at room temperature. The plates were next washed carefully three times with SAB, blocked with 250 μl of blocking solution (0.4% w/v fish skin gelatine, Sigma-Aldrich, in SAB) and incubated for 1 h at 37° C. TGF-β1 was then dissolved in blocking solution at a concentration of 100, 200, or 400 ng/ml. The plates were washed three times with SAB and each dilution of protein (200 μl) was dispensed into triplicate wells and incubated for 2 h at 37° C., rinsed with SAB and 200 μl of 750 ng/ml monoclonal mouse anti-TGF-β1 antibody (MAB2401, R&D Systems) added in blocking solution. […] Finally, 200 μl of development reagent (SigmaFAST p-Nitrophenyl phosphate, Sigma-Aldrich) was added, incubated at 37° C. for 40 min and read at 405 nm within 1 h.

[4] = tested on: chondrogenic differentiation of hMSCs; test: qPCR of day 3 chondrogenic micromass pellets (Example 1); format: cell-based, human; details: 3-day old pellets; SB431542 10 μM vs DMSO
Protocol: Chondrogenic differentiation was carried out using a modified micromass culture system as described by Zhang et al. (32). Briefly, passage 4 hMSCs were harvested and resuspended in chemically defined chondrogenic media (PT-3003, Lonza) at 2×10^7 cells/ml. Droplets of 12.5 μl were then seeded into the middle of each well in a 24-well plate and left to adhere at 37° C. for 2 h, after which, 500 μl of chondrogenic media supplemented with either 10 ng/ml of TGF-β1 (100-21C, PeproTech) alone (Media) or TGF-β1 with 10 μg/ml of heparin (Sigma-Aldrich) (Media+Hep) was added to each well. The cell droplets coalesced into spherical masses after 24 h and the micromasses harvested on day 3. Human MSCs were cultured in 6-well plates in basal media for 24 h at a density of 10,000 cells/cm^2. TGF-β1 treatments were then prepared at either 1 ng/ml or 5 ng/ml alone or in the presence of either 10 μg/ml or 40 μg/ml of full length heparin, or 1 ng/ml of TGF-β1 with 10 μg/ml size-fractionated or selectively desulfated heparin, HS^PM, HS16+ or HS16−, and incubated at room temperature for 10 min before being added to the cells. Latent TGF-β1 (LTGF-β1) treatments were similarly prepared at 3.3 ng/ml alone or with 10 μg/ml of the various GAGs described above. For inhibitor studies, the cells were pre-treated for 30 min with 10 μM SB431542 (Sigma-Aldrich) or DMSO before treatment with TGF-β1. The cells were then subjected to the various TGF-β1 treatments for 1, 6 or 24 h and lysed in 2× Laemmli buffer, before being resolved on a 4-12% SDS-PAGE gel. Samples were then immunoblotted with antibodies against SMAD2/3 (#3102, Cell Signaling), phosphorylated SMAD2 (pSMAD2, #3108, Cell Signaling), phosphorylated SMAD3 (pSMAD3, #9520, Cell Signaling) and actin (MAB1501R, Millipore). Densitometry was carried out using Quantity One software (version 4.6.6, Bio-Rad). Total RNA was isolated from chondrogenic micromass pellets using TRIZOL reagent (Invitrogen, Life Technologies) according to the manufacturer's protocol. Reverse transcription was carried out on 1 μg RNA using the SuperScript® VILO™ cDNA Synthesis Kit (Invitrogen, Life Technologies) following the manufacturer's instructions, with the incubation at 42° C. being carried out for 2 h instead of 1 h. Each qPCR contained 40 ng cDNA, 1 μl TaqMan® primer-probe mix per gene, and 10 μl Taqman® Fast Universal PCR Master Mix (Applied Biosystems, Life Technologies) in a final volume of 20 μl. Thermal cycling conditions were 95° C. for 20 s, followed by 45 cycles of 95° C. for 3 s and 60° C. for 30 s. Each qPCR was run in duplicate and gene expression was normalized to HPRT1 expression to obtain the ΔCt value. […] Relative expression levels for each primer set were expressed as fold changes by the 2^−ΔΔCt method (36). […]

T1 sequence (P01137 279-390 limits assumed): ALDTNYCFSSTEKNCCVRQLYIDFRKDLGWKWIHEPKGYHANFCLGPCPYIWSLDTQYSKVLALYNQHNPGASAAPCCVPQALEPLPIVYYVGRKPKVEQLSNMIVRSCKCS

ability to competitively inhibit TGF-β1 binding to immobilized heparin [1]	reduction of TGF-β1 binding compared to fully sulfated, full-length heparin [3]	loss of TGF-β1-binding ability ([1]; 200 nM TGF-β1 with 5 or 10 μg GAG, relative to heparin)	TGF-β1 binding to immobilized GAG ([3]; TGF-β1 100, 200 or 400 ng/ml)	Molecule	pSMAD2 and pSMAD3 levels [2]	COMP gene expression [4]	SOX9 gene expression [4]
minimal effect	about 60%	–	–	2-O-desulfated heparin	increase to levels beyond those seen in heparin-treated cells	–	–
–	approximately 80%	approximately 40%	–	6-O-desulfated heparin	stabilization of pSMAD levels	–	–
–	–	–	–	NC(=O)c1ccc(-c2nc(-c3ccc4c(c3)OCO4)c(-c3ccccn3)[nH]2)cc1 [SB431542]	–	reduction	reduction
abrogated	–	–	essentially abolished	N-desulfated heparin	did not lead to an increase in pSMAD levels	–	–
